Experimental findings from article PMC10004187 (Molecules, 2023) are described below.

The target of data set [1] is T1, butyrylcholinesterase (BuChE) (Homo sapiens, UniProt P06276). To be noted: for Butyrylcholinesterase (BuChE) Inhibition %Inhibition: given for compounds with <50% inhibition, test concentration not given.
Data set [2] concerns Vero cell lines (normal kidney epithelial cells). Put plainly: SRB cytotoxicity assay against Vero cell line. It is filed as cell-based. Conditions: initial screening. The method, then:
To investigate the cytotoxicity of potent compounds (8a, 8c, 8g, and 9i), an SRB assay was performed against Vero cell lines (normal kidney epithelial cells). The total protein generated when cells were treated with putative anticancer drugs was assessed using a very precise […] technique. […] It can readily connect with cells that have been fixed with trichloroacetic acid (TCA). A bright color is produced by the SRB dye when it binds solely to intracellular proteins, and the color is proportional to the quantity of protein present in the cell.

Data set [3] addresses T1, butyrylcholinesterase (BuChE). Put plainly: biochemical.

T1 sequence (P06276 29-602): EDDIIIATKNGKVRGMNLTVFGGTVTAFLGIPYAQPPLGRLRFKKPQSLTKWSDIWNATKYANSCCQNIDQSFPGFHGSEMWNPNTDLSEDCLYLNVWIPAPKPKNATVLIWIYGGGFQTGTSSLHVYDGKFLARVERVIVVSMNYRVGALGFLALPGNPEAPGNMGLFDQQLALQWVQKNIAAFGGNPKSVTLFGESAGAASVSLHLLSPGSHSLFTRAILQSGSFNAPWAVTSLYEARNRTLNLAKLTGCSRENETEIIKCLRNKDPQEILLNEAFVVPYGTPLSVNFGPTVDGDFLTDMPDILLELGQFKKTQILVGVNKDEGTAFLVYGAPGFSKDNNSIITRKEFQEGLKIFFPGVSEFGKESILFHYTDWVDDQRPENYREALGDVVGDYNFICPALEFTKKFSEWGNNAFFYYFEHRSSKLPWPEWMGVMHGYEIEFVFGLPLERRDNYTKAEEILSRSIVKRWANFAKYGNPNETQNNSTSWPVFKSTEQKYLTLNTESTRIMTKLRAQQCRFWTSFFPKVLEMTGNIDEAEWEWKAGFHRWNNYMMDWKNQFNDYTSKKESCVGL

Consider `Cc1ccc2nc(N3CCCCC3)c(C=NNC(=O)c3ccc(Cl)cc3Cl)cc2c1` [Compound 8i, 2,4-Dichloro-N′-((6-methyl-2-(piperidin-1-yl)quinolin-3-yl)methylene)benzohydrazide], for which, in data set [1], the “Butyrylcholinesterase (BuChE) Inhibition %Inhibition” value stood at 39%.

For the molecule `Cc1cccc2cc(C=NNC(=O)c3ccc(Cl)cc3Cl)c(N3CCCCC3)nc12` [Compound 9g, 2,4-Dichloro-N′-((8-methyl-2-(piperidin-1-yl)quinolin-3-yl)methylene)benzohydrazide], the “Butyrylcholinesterase (BuChE) Inhibition %Inhibition” value in data set [1] is 32%.

With `COc1ccc(C(=O)NN=Cc2cc3cc(C)ccc3nc2N2CCCCC2)cc1` [Compound 8l, 4-Methoxy-N′-((6-methyl-2-(piperidin-1-yl)quinolin-3-yl)methylene)benzohydrazide], the “Butyrylcholinesterase (BuChE) Inhibition %Inhibition” value in data set [1] is reported as 15%.

Regarding `Cc1ccc2nc(N3CCCCC3)c(C=NNC(=O)c3ccc([N+](=O)[O-])cc3)cc2c1` [Compound 8c, N′-((6-methyl-2-(piperidin-1-yl)quinolin-3-yl)methylene)-4-nitrobenzohydrazide], in data set [2], the “inhibition of Vero cells (toxicity towards normal kidney cells)” value (shortened to “inhibition of Vero cells”) is reported as “less than 22%”. The molecule further registered an IC50 in data set [3] of 1.74 ± 0.03 µM.

As to `Cc1cccc2cc(C=NNC(=O)c3ccc(Cl)cc3)c(N3CCCCC3)nc12` [Compound 9f, 4-Chloro-N′-((8-methyl-2-(piperidin-1-yl)quinolin-3-yl)methylene)benzohydrazide], the “Butyrylcholinesterase (BuChE) Inhibition %Inhibition” value in data set [1] amounted to 36%.

`COc1ccc(C(=O)NN=Cc2cc3cccc(C)c3nc2N2CCCCC2)cc1` [Compound 9j, 4-Methoxy-N′-((8-methyl-2-(piperidin-1-yl)quinolin-3-yl)methylene)benzohydrazide]: the “Butyrylcholinesterase (BuChE) Inhibition %Inhibition” value in data set [1] amounted to 38%.

In the case of `Cc1ccc2nc(N3CCCCC3)c(C=NNC(=O)c3ccccc3)cc2c1` [Compound 8a, N′-((6-methyl-2-(piperidin-1-yl)quinolin-3-yl)methylene)benzohydrazide], the “inhibition of Vero cells” value in data set [2] was “less than 22%”. Also, half-maximal inhibition in data set [3] (IC50) was put at 4.64 ± 0.43 µM.

Turning to `Cc1cccc2cc(C=NNC(=O)c3cccc(Cl)c3)c(N3CCCCC3)nc12` [Compound 9e, 3-Chloro-N′-((8-methyl-2-(piperidin-1-yl)quinolin-3-yl)methylene)benzohydrazide], the “Butyrylcholinesterase (BuChE) Inhibition %Inhibition” value in data set [1] is given as 40%.

As to `COc1cccc(C(=O)NN=Cc2cc3cc(C)ccc3nc2N2CCCCC2)c1` [Compound 8k, 3-Methoxy-N′-((6-methyl-2-(piperidin-1-yl)quinolin-3-yl)methylene)benzohydrazide], the “Butyrylcholinesterase (BuChE) Inhibition %Inhibition” value in data set [1] is listed as 28%.

`Cc1ccc2nc(N3CCCCC3)c(C=NNC(=O)c3cccc([N+](=O)[O-])c3)cc2c1` [Compound 8b, N′-((6-methyl-2-(piperidin-1-yl)quinolin-3-yl)methylene)-3-nitrobenzohydrazide]: the “BuChE inhibition ability, fold reduction relative to 8g” value in data set [1] (Cl exchanged for NO2, vs lead 8g) is listed as 3 folds. For the same molecule, half-maximal inhibition in data set [3] (IC50) required 4.71 ± 0.45 µM.

Consider `Cc1ccc2nc(N3CCCCC3)c(C=NNC(=O)c3ccc(Cl)cc3)cc2c1` [Compound 8h, 4-Chloro-N′-((6-methyl-2-(piperidin-1-yl)quinolin-3-yl)methylene)benzohydrazide], for which the “Butyrylcholinesterase (BuChE) Inhibition %Inhibition” value in data set [1] turned out to be 34%.

`Cc1cccc2cc(C=NNC(=O)c3ccccc3)c(N3CCCCC3)nc12` [Compound 9a, N′-((8-methyl-2-(piperidin-1-yl)quinolin-3-yl)methylene)benzohydrazide]: in data set [1], the “Butyrylcholinesterase (BuChE) Inhibition %Inhibition” value came out at 32%.

`COc1ccccc1C(=O)NN=Cc1cc2cc(C)ccc2nc1N1CCCCC1` [Compound 8j, 2-Methoxy-N′-((6-methyl-2-(piperidin-1-yl)quinolin-3-yl)methylene)benzohydrazide]: the “Butyrylcholinesterase (BuChE) Inhibition %Inhibition” value in data set [1] came out at 30%.

With `Cc1cccc2cc(C=NNC(=O)c3ccc([N+](=O)[O-])cc3)c(N3CCCCC3)nc12` [Compound 9c, N′-((8-methyl-2-(piperidin-1-yl)quinolin-3-yl)methylene)-4-nitrobenzohydrazide], the “Butyrylcholinesterase (BuChE) Inhibition %Inhibition” value in data set [1] was 32%.

As for `Cc1ccc2nc(N3CCCCC3)c(C=NNC(=O)c3ccccc3Cl)cc2c1` [Compound 8f, 2-Chloro-N′-((6-methyl-2-(piperidin-1-yl)quinolin-3-yl)methylene)benzohydrazide], the “Butyrylcholinesterase (BuChE) Inhibition %Inhibition” value in data set [1] is recorded as 15%.

Turning to `COc1ccccc1C(=O)NN=Cc1cc2cccc(C)c2nc1N1CCCCC1` [Compound 9h, 2-Methoxy-N′-((8-methyl-2-(piperidin-1-yl)quinolin-3-yl)methylene)benzohydrazide], the “Butyrylcholinesterase (BuChE) Inhibition %Inhibition” value in data set [1] is recorded as 33%.

On to `COc1cccc(C(=O)NN=Cc2cc3cccc(C)c3nc2N2CCCCC2)c1` [Compound 9i, 3-Methoxy-N′-((8-methyl-2-(piperidin-1-yl)quinolin-3-yl)methylene)benzohydrazide], for which the “inhibition of Vero cells” value in data set [2] was “less than 22%”. For the same molecule, the “Butyrylcholinesterase (BuChE) Inhibition %Inhibition” value in data set [1] came to 27%.

As for `Cc1cccc2cc(C=NNC(=O)c3cccc([N+](=O)[O-])c3)c(N3CCCCC3)nc12` [Compound 9b, N′-((8-methyl-2-(piperidin-1-yl)quinolin-3-yl)methylene)-3-nitrobenzohydrazide], the “Butyrylcholinesterase (BuChE) Inhibition %Inhibition” value in data set [1] was 27%.

Turning to `Cc1ccc2nc(N3CCCCC3)c(C=NNC(=O)c3ccccc3O)cc2c1` [Compound 8m, 2-Hydroxy-N′-((6-methyl-2-(piperidin-1-yl)quinolin-3-yl)methylene)benzohydrazide], the “Butyrylcholinesterase (BuChE) Inhibition %Inhibition” value in data set [1] was determined as 13%.

For `Cc1ccc2nc(N3CCCCC3)c(C=NNC(=O)c3ccc(N)cc3)cc2c1` [Compound 8e, 4-Amino-N′-((6-methyl-2-(piperidin-1-yl)quinolin-3-yl)methylene)benzohydrazide], the “Butyrylcholinesterase (BuChE) Inhibition %Inhibition” value in data set [1] is on record as 23%.

For `Cc1ccc2nc(N3CCCCC3)c(C=NNC(=O)c3ccccc3N)cc2c1` [Compound 8d, 2-Amino-N′-((6-methyl-2-(piperidin-1-yl)quinolin-3-yl)methylene)benzohydrazide], the “Butyrylcholinesterase (BuChE) Inhibition %Inhibition” value in data set [1] came out at 21%.

Consider `Cc1ccc2nc(N3CCCCC3)c(C=NNC(=O)c3cccc(Cl)c3)cc2c1` [Compound 8g, 3-Chloro-N′-((6-methyl-2-(piperidin-1-yl)quinolin-3-yl)methylene)benzohydrazide], for which the “inhibition of Vero cells” value in data set [2] was “less than 22%”. In data set [3], it took 1.31 ± 0.05 µM to reach half-maximal inhibition (IC50).

Regarding `Cc1cccc2cc(C=NNC(=O)c3ccccc3Cl)c(N3CCCCC3)nc12` [Compound 9d, 2-Chloro-N′-((8-methyl-2-(piperidin-1-yl)quinolin-3-yl)methylene)benzohydrazide], the “Butyrylcholinesterase (BuChE) Inhibition %Inhibition” value in data set [1] was 38%.
